From patent publication US11820994B2, “Methods of inducing apomictic or sexual reproduction” (priority 2018, dated 2023)

Tests used:
[1] = test system: B. cf. gunnisoniana ovules; settings: pre-MMC staged pistils demethylated with 5-azaC; cited from earlier work
Arabidopsis ovules = test: Pistil culture experiments with 5-azaC, BR (epiBL), DTBA, H2O2 and sugars, meiosis to apomeiosis; format: cell-based, Arabidopsis thaliana
Source text: (§1) To address redox instability, pistils were exposed to the antioxidant DTBA, an antioxidant that protects thiol groups in proteins from oxidization. To address bioenergetic stress, pistils were exposed to sugars. Glucose signaling is one of the most ancient and central signaling pathways in animals and plants and is involved in gene expression, primary and secondary metabolism, and regulation of growth and development (98). In Arabidopsis, rates of glycolysis and mitochondrial bioenergetics are sensed by TOR, which then control root meristem activation (18). If sufficient sugar is supplied, TOR should be activated. Active TOR protects BZR1 and other important BR-regulated enzymes from degradation, and this leads to plant growth (25). Factorial experiments were designed to test the effects of sucrose, glucose, epiBL, DTBA and 5-azaC on apomixis induction. These were designed for each of three sexual species, B. stricta, arabidopsis and cowpea. The experiments were performed and ratios of apomeiosis to meiosis were documented.
Two factorial experiments were conducted using immature arabidopsis pistils. In the first experiment, no 5-azaC, 5-azaC in the pretreatment only, or 5-azaC in both the pretreatment and the tissue culture medium were tested.
Cytological Analyses. Arabidopsis, Drummond's rockcress and cowpea floral buds were fixed in FAA (v/v: 3.7% formaldehyde, 5% acetic acid, 50% ethanol) for 48 h and cleared in 2:1 benzyl benzoate dibutyl phthalate (BBDP) (80): 1) 70% EtOH, 30 min; 95% EtOH, ≥4 h (2×); 95% EtOH:BBDP (2:1), 2 h; 95% EtOH:BBDP (1:2), 4 h; BBDP, 4 h; BBDP, overnight. Cleared pistils were mounted (up to 16 per slide) and measured from the pedicel base to the top of the stigma. Ovule development stages were studied using a BX53 microscope equipped with differential interference contrast optics and a MicroFire 599809 camera (Olympus, Center Valley, Pa., USA). For chromosome staining, pistils were soaked in 95% ethanol that contained 0.1 mg L^−1 4′,6-diamidino-2-phenylindole (DAPI). Callose was stained by soaking DAPI stained pistils in aqueous aniline blue (Millipore Sigma, Darmstadt, Germany) (124). DAPI fluorescence was detected with a Zeiss LSM 510 confocal microscope with excitation at 408 nm, dichroic reflector at HFT488 nm and detection at 450-650 nm. Callose was distinguished from DAPI by detection at 550-650 nm.
Presence of the following ovule characteristics were recorded: MMCs, Antennaria type diplosporous 1-2 nucleate ES, sexual or Taraxacum type diplosporous dyads, sexual tetrads, sexual or Taraxacum type diplosporous 1-2 nucleate ES, AI and AES. Developmental stages for the majority of ovules per pistil were recorded, and pistil lengths for the following stages (125) were recorded: 1-II, ovule meristems protruding from placentae (precedes MMC formation); 2-IV, meiosis; 3-III, vacuole in immature ES beginning to appear; 4-VI, nuclear divisions in endosperm underway. To determine average timing of meiosis onset, pistils primarily containing premeiotic (2-III) ovules were located under low light conditions 1 h before the lights came on in the morning. Corresponding sepals were marked with a small point permanent marker. Pistils were then randomly harvested for analysis when the lights came on and 3 h thereafter.
Pistils were aseptically excised, but not disinfested, at the early pre-MMC to MMC stages and incubated in vitro. The basal culture medium for arabidopsis and Drummond's rockcress was MS (126) (Caisson Laboratories, Inc., Smithfield, UT USA) with 20 g L^−1 sucrose or glucose and solidified with 1.45 g L^−1 Phytogel (MilliporeSigma).

[2] = test system: cowpea (Vigna unguiculata) ovules; test: Pistil culture with epiBL, DTBA, epiBL plus DTBA and 5-azaC; format: cell-based; settings: compound in pretreatment and culture medium; 24 of 34 ovules in total
Source text: as §1, with “These were designed for each of three sexual species, B. stricta, arabidopsis and cowpea. The experiments were performed and ratios of apomeiosis to meiosis were documented.” left out
Cytological Analyses. […] Cleared pistils were mounted (up to 16 per slide) and measured from the pedicel base to the top of the stigma. […] DAPI fluorescence was detected with a Zeiss LSM 510 confocal microscope with excitation at 408 nm, dichroic reflector at HFT488 nm and detection at 450-650 nm. […]
Presence of the following ovule characteristics were recorded: MMCs, Antennaria type diplosporous 1-2 nucleate ES, sexual or Taraxacum type diplosporous dyads, sexual tetrads, sexual or Taraxacum type diplosporous 1-2 nucleate ES, AI and AES. […]

[3] = test system: B. cf. gunnisoniana ovules; test: 5-azaC pre-culture soak and pistil culture, Taraxacum-type to Antennaria-type diplospory; format: cell-based; settings: 500 μmol L−1 5-azaC (highest concentration)
Experimental: FIG. 38 Frequencies of triploid B. cf. gunnisoniana ovules that were initiating Taraxacum-type diplospory, Polygonum-type sexual development, Antennaria-type diplospory, or Hieracium-type apospory at the end of pistil culture treatment as affected by a 5 min pre-culture soak in solutions containing 5-azacytidine (5-azaC). Pistils were initiated in culture at the 1-I stage. Numbers of ovules per level of 5-azaC averaged 487 and ranged from 288-590.
FIGS. 39A-39C Ovules from pistils of B. gunnisoniana treated at the pre-MMC stage with 5-azaC as a pretreatment solution and then cultured on 5-azaC-containing tissue culture media for 48 h. (FIGS. 39A, 39B) Antennaria-type (A-type) MMC vacuolation. (FIG. 39C) 2-nucleate A-type embryo sac arising directly from an MMC. scale bar: 20 μm.
Thus, if methylation in sexual plants can be prevented, or if DNA can be demethylated, the apomictic pathway might surface as the default pathway. 5-azaC, an inhibitor of DNA-cytosine methyltransferases, produces upon DNA replication hypomethylated DNA. It is a chemical analogue of cytosine that is incorporated into DNA by competition with cytosine during DNA synthesis. In 5-azaC, the carbon-5 of the cytosine ring, which is essential to DNA methyltransferase function, is replaced by nitrogen, and this causes failure of methylation at each 5-azaC site(99). […]

[4] = test system: B. cf. gunnisoniana ovules; test: Pistil culture with BR biosynthesis inhibitor BRZ, H2O2, or both; format: cell-based; settings: for shift from apomeiosis (dyad formation) to meiosis (tetrad formation) vs controls: BRZ alone (1.0 μmol), H2O2 alone (500 μmol), or combined
Experimental: Pistils were cultured at the 2-IV stage.
Pistils were cultured at the […].
By a mechanism not yet elucidated (25), TOR stimulates the production of brassinosteroids (BR), which are plant steroids that regulate growth, including many growth and development functions of ovules (25). By dephosphorylation, BR activates BRASSINAZOLE-RESISTANT 1 (BZR1), which is a major BR-regulated transcription factor that targets ca. 2000 genes. Thus, to determine if BR functions downstream of TOR in the apomeiosis meiosis switch, we treated sets of B. cf. gunnisoniana pistils with the BR biosynthesis inhibitor brassinozole (BRZ). Pistils were collected during the 2-III and 2-IV stages.
To determine if apomixis to sex switching by H2O2 involves pathways independent of BR, we compared three treatments to controls, BRZ alone (1.0 μmol), H2O2 alone (500 μmol), and BRZ and H2O2 combined (FIG. 37).

[5] = test system: B. stricta (Drummond's rockcress) ovules; test: Pistil culture factorial experiment with sucrose, glucose, epiBL, DTBA and 5-azaC; format: cell-based, Boechera stricta
Source text: as §1
Both the carbohydrate variable and the other components variable were highly significant (P<0.001). Additionally, three ovules from the sucrose plus epiBL treatment (epiBL in the pretreatment and in the medium) had formed aposporous embryo sacs (AES). Also, two ovules, one from the sucrose-epiBL-epiBL treatment and one from the glucose-DTBA-DTBA treatment, had formed Antennaria-type diplosporous embryo sacs (FIGS. 48A-48H).
Cytological Analyses. Arabidopsis, Drummond's rockcress and cowpea floral buds were fixed in FAA (v/v: 3.7% formaldehyde, 5% acetic acid, 50% ethanol) for 48 h and cleared in 2:1 benzyl benzoate dibutyl phthalate (BBDP) (80): 1) 70% EtOH, 30 min; 95% EtOH, ≥4 h (2×); 95% EtOH:BBDP (2:1), 2 h; 95% EtOH:BBDP (1:2), 4 h; BBDP, 4 h; BBDP, overnight. Cleared pistils were mounted (up to 16 per slide) and measured from the pedicel base to the top of the stigma. […] DAPI fluorescence was detected with a Zeiss LSM 510 confocal microscope with excitation at 408 nm, dichroic reflector at HFT488 nm and detection at 450-650 nm. […]
Presence of the following ovule characteristics were recorded: MMCs, Antennaria type diplosporous 1-2 nucleate ES, sexual or Taraxacum type diplosporous dyads, sexual tetrads, sexual or Taraxacum type diplosporous 1-2 nucleate ES, AI and AES. Developmental stages for the majority of ovules per pistil were recorded, and pistil lengths for the following stages (125) were recorded: 1-II, ovule meristems protruding from placentae (precedes MMC formation); 2-IV, meiosis; 3-III, vacuole in immature ES beginning to appear; 4-VI, nuclear divisions in endosperm underway. […]

Arabidopsis embryo sacs = test: Induction of parthenogenesis and autonomous endosperm formation in pistils; format: cell-based; settings: 0.1 μM DTBA on 2% glucose medium for 7 d
Experimental: Scale bars: 50 μm (FIG. 51A), 20 μm (FIGS. 51B-51E).
FIG. 52 Parthenogenesis in putatively diploid Arabidopsis embryo sacs induced by treatment of pistils in emasculated flowers with 2 μM BR or 50 mM glucose. To prevent fertilization, stigmas of pistils were clipped while anthers were immature. These pistils were also treated premeiotically with BR and glucose.
Functional apomixis requires not only apomeiosis but also parthenogenesis and, in plants, endosperm formation.

[6] = test system: apomictic Boechera pistils; settings: H2O2 applications shortly before apomeiosis; cited from earlier work
B. lignifera ovules = settings: 50 and/or 100 mmol L−1 H2O2, 5 min pretreatment of pistils
Source text: (§2) Ovules were scored based on germline development. The following conditions were quantified: i) pre-meiotic megaspore mother cell (MMC), ii) meiotic or diplosporous dyad, iii) sexual tetrad of megaspores, iv) enlarged functional megaspore (FM) with three degenerating megaspores (sexually derived), v) early-stage 1 or 2-nucleate embryo sac with three degenerating megaspore remnants visible, vi) enlarged functional megaspore (FM) with only one degenerating megaspore (derived by Taraxacum-type diplospory), vii) early-stage 1 or 2-nucleate embryo sac with only one degenerating megaspore remnant (derived by Taraxacum-type diplospory), viii) early-stage 1 or 2-nucleate embryo sac with no degenerating megaspores present (derived by Antennaria-type diplospory), ix) presence of one or more enlarged non-vacuolate nucellar cells (aposporous initial, AI) that equal or surpass the size of the meiocyte (meiotically active MMC, dyad or early-stage tetrad), x) enlarged nucellar cell with one or more distinct vacuoles and 1-2 nuclei (early-stage aposporous embryo sac, AES). Because of increased uncertainties, the origins of embryo sacs (sexual, diplosporous or aposporous) were not reported beyond the 2-nucleate stage. Pistil length and the developmental stage of the majority of scorable ovules in the pistil were recorded for each pistil.
(§3) To study the effects of short-term drought on converting apomictic development to sexual development, pistils of apomictic B. retrofracta×stricta, B. cf. gunnisoniana and B. lignifera were excised and cultured at pre-apomeiotic stages of ovule development.
(§4) TARGET OF RAPAMYCIN (TOR) is a major regulator of cell energetics that is highly-conserved among eukaryotes. This serine/threonine protein kinase activates or inactivates enzymes by its serine-threonine phosphorylation function(18). As a regulator of bioenergetics, TOR is inactivated by ROS, and its inactivation suppresses growth.

[7] = test system: B. cf. gunnisoniana ovules
Source text: as §2, §3, §4

[8] = test system: B. retrofracta×stricta ovules; settings: 50 and/or 100 mmol L−1 H2O2, 5 min pretreatment of pistils
Source text: as §2, §3, §4

[9] = early MMC staged pistils soaked in DTBA 60 min, cultured on DTBA medium 4 d
[10] = 7 min pretreatment in dilute H2O2

Nc1ncn([C@@H]2O[C@H](CO)[C@@H](O)[C@H]2O)c(=O)n1 [5-azaC, 5-azacytidine]
ovules switched from Taraxacum-type to Antennaria-type diplospory [1]: 10%
Antennaria type diplospory (Arabidopsis ovules; 5-azaC soak, then 5-azaC or BR medium (5/5, 5/B)): occurred in some ovules
ovules with meiosis replaced by Antennaria-type diplosporous embryo sac formation (Arabidopsis ovules; first factorial experiment, 5-azaC in pretreatment and tissue culture media): 6%
onset of aposporous embryo sac formation (Arabidopsis ovules; first factorial experiment, 5-azaC in pretreatment only or pretreatment and medium): effectively induced onset of aposporous embryo sac formation from nucellar cells
treated ovules that developed apomeiotically (Arabidopsis ovules; pre-MMC pistils soaked in 5-azaC 60 min, cultured on control medium or media with 5-azaC, BR, or 5-azaC plus BR and DTBA): Greater than 90%
ovules with Antennaria-type diplospory (Arabidopsis ovules; second factorial experiment, 5-azaC as pretreatment and in culture medium): 26%
ovules that initiated apomixis (AES, Taraxacum-type and Antennaria-type diplospory) (Arabidopsis ovules; second factorial experiment, 5-azaC-treated): 90%
number of ovules that initiated Antennaria-type diplospory [2]: Nine
ovules with induced Antennaria-type diplospory [3]: 10%

CC(O)(c1ccccc1)C(Cc1ccc(Cl)cc1)n1cncn1 (stereo not shown) [BRZ, brassinazole]
shift from apomeiosis (dyad formation) to meiosis (tetrad formation) vs controls [4]: highly significant (p<0.001) shift from apomeiosis (dyad formation) to meiosis (tetrad formation)
shift of reproductive mode by BR synthesis inhibition ([4]; pistils cultured at the 2-IV stage): significant shift (P<0.05) from apomeiosis to meiosis and from apoptosis to apospory

Cl.N[C@H](CS)CCS [DTBA, (S)-2-aminobutane-1,4-dithiol hydrochloride]
ovules with 1st division meiotic restitution (Taraxacum-type diplosporous apomeiosis) (Arabidopsis ovules; [9]): 40%
ovules with megaspores displaced by one or more AES (Arabidopsis ovules; [9]): 18%
number of ovules that formed Antennaria-type diplosporous embryo sacs ([5]; glucose-DTBA-DTBA treatment): one
number of ovules that initiated Antennaria-type diplospory [2]: 8 ovules
parthenogenetic embryo formation (Arabidopsis embryo sacs): Parthenogenetic embryos

OO [H2O2, hydrogen peroxide]
Taraxacum-type diplosporous ES formation (Arabidopsis ovules; [10]): absent
ovules with surviving megaspores replaced by AES (Arabidopsis ovules; [10]): 13%
shift from apomeiosis (dyad formation) to meiosis (tetrad formation) vs controls [4]: highly significant (p<0.001) shift from apomeiosis (dyad formation) to meiosis (tetrad formation)
shift from apomeiosis to meiosis [6]: high frequency shifts from Taraxacum-type diplosporous apomeiosis to normal meiosis
switch from apomeiosis to meiosis (B. lignifera ovules): effectively switched apomeiosis to meiosis
switch from apomeiosis to meiosis ([7]; 50 and/or 100 mmol L−1 H2O2, 5 min pretreatment of pistils): effectively switched apomeiosis to meiosis
replacement of surviving megaspores of tetrads by aposporous embryo sacs (apospory), ovules ([7]; H2O2 treatments): 30%
switch from apomeiosis to meiosis [8]: effectively switched apomeiosis to meiosis

OC[C@H]1O[C@@](CO)(O[C@H]2O[C@H](CO)[C@@H](O)[C@H](O)[C@H]2O)[C@@H](O)[C@@H]1O [sucrose]
meiosis termination followed by Taraxacum and Hieracium type ES formation ([5]; glucose instead of sucrose in medium): 26 of 164
